Assay results taken from patent US20250205259A1, “CLASS OF 7-((FIVE-MEMBERED HETEROCYCLIC)METHYL)-8-CARBOXYLIC ACID-BENZO CYCLIC BORATE DERIVATIVES AND USES THEREOF” (priority 2022, published 2025).
Read-outs that look alike come from different tables or passages of the source.

Assays:
Format in all cases: biochemical
NDM-1 = NDM-1 (Klebsiella pneumoniae, UniProt C7C422); assay: Inhibitory activity on MBL, fluorescent substrate FC-5
NDM-5 = NDM-5 (Klebsiella pneumoniae, UniProt C7C422, M154L/V88L); assay: as above
NDM-5, sequence (C7C422 29-270 V88L/M154L): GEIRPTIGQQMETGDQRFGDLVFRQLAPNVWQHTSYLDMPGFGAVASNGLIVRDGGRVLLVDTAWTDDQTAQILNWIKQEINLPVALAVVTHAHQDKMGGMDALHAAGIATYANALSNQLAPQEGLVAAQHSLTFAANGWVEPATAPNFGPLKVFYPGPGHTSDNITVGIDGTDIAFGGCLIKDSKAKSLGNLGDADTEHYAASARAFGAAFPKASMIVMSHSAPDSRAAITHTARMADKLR

IMP-1 = IMP-1 (Serratia marcescens, UniProt P52699); assay: as above
IMP-1, sequence (P52699 19-246 limits assumed): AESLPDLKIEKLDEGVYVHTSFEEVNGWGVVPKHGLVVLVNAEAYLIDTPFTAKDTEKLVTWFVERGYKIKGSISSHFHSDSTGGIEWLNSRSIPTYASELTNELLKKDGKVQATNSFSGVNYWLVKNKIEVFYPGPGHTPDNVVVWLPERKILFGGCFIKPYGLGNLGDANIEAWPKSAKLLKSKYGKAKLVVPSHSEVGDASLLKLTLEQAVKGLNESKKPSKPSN

VIM-1 = VIM-1 (Pseudomonas aeruginosa, UniProt A0A0F7KYQ8); assay: as above
VIM-2 = VIM-2 (Escherichia coli, UniProt Q5U7L7); assay: as above; conditions: read-out: Inhibitory activity on MBL VIM-2 (IC50 class)
KPC-2 = KPC-2 (Klebsiella pneumoniae, UniProt Q9F663); assay: Inhibitory activity on SBL, fluorescent substrate FC-5; conditions: read-out: Inhibitory activity on SBL KPC-2 (IC50 class)
KPC-2, sequence (Q9F663 25-293 limits assumed): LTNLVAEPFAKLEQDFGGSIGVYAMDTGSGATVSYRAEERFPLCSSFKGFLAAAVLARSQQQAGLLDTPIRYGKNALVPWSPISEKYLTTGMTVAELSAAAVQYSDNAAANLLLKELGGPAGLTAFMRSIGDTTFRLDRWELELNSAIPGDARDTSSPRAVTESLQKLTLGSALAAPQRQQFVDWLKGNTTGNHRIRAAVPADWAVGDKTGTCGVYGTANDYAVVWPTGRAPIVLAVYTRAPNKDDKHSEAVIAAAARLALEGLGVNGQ

TEM-1 = TEM-1 (Escherichia coli, UniProt P62593); assay: as above; conditions: read-out: Inhibitory activity on SBL TEM-1 (IC50 class)
TEM-1, sequence (P62593 24-286 limits assumed): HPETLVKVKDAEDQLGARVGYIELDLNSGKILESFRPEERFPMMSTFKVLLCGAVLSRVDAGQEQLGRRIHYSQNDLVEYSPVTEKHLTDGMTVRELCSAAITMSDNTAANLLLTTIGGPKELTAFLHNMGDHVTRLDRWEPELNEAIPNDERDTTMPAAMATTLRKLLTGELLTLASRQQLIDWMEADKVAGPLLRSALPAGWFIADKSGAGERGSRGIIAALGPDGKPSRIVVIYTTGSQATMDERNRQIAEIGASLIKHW

SHV-12 = target: T1, SHV-12 (UniProt P0AD64, L31Q/G234S/E235K, species not given); assay: as above; conditions: read-out: Inhibitory activity on SBL SHV-12 (IC50 class)
T1 sequence (P0AD64 1-286 L31Q/G234S/E235K): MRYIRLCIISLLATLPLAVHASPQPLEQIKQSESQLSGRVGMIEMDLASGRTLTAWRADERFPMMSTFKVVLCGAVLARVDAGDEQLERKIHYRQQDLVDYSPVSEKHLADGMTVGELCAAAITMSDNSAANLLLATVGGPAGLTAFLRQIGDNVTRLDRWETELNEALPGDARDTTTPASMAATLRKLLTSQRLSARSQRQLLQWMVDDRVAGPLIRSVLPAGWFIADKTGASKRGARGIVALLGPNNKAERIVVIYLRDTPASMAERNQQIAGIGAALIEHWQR

CTX-M-14 = CTX-M-14 (Escherichia coli, UniProt Q9L5C7); assay: as above; conditions: read-out: Inhibitory activity on SBL CTX-M-14 (IC50 class)
CTX-M-14, sequence (Q9L5C7 entry or part of it): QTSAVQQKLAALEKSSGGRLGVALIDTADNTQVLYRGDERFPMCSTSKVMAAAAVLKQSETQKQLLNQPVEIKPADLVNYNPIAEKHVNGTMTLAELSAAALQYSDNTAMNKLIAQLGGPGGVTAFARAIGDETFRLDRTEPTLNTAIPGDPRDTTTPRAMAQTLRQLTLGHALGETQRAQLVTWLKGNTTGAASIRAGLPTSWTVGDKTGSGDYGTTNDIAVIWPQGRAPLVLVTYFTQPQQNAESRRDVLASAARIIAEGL

OXA-48 = OXA-48 (Klebsiella pneumoniae, UniProt Q6XEC0); assay: as above; conditions: read-out: Inhibitory activity on SBL OXA-48 (IC50 class)
OXA-48, sequence (Q6XEC0 23-265 limits assumed): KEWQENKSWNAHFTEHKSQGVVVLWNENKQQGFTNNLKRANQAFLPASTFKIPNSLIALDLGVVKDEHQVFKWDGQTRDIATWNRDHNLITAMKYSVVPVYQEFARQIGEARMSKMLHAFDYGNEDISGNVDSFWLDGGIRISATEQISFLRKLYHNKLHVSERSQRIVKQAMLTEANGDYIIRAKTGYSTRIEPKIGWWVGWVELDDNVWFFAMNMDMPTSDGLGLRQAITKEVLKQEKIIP

[1] = read-out: Inhibitory activity on MBL NDM-1 (IC50 class)
[2] = read-out: Inhibitory activity on MBL NDM-5 (IC50 class)
[3] = read-out: Inhibitory activity on MBL IMP-1 (IC50 class)
[4] = VIM-1 and/or VIM-2, read-out: inhibitory activity at a nanomolar-level on VIM-1 and/or VIM-2
[5] = read-out: Inhibitory activity on MBL VIM-1 (IC50 class)
[6] = read-out: inhibitory activity at a nanomolar-level on NDM-1
[7] = read-out: inhibitory activity at a nanomolar-level on NDM-5

NDM-1, sequence (C7C422 29-270 limits assumed): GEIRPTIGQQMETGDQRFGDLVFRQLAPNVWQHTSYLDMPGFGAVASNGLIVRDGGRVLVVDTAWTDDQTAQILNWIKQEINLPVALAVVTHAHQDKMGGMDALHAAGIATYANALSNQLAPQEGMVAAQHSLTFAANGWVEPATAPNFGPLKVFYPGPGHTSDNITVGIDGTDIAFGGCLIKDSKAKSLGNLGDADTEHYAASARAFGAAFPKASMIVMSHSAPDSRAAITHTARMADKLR

Compound	IC50 (NDM-1; [1]) [µM]	IC50 (NDM-5; [2]) [µM]	IC50 (IMP-1; [3]) [µM]	IC50 (VIM-1; [4]) [µM]	IC50 (VIM-1; [5]) [µM]	IC50 (VIM-2) [µM]	IC50 (KPC-2) [µM]	IC50 (TEM-1) [µM]	IC50 (SHV-12) [µM]	IC50 (CTX-M-14) [µM]	IC50 (OXA-48) [µM]	IC50 (NDM-1; [6]) [µM]	IC50 (NDM-5; [7]) [µM]	IC50 (NDM-5; Inhibitory activity on MBL NDM-5 (IC50 class)) [µM]	IC50 (NDM-5; inhibitory activity at a nanomolar-level on NDM-5) [µM]	IC50 (IMP-1; IMP-1 and/or IMP-4, read-out: inhibitory activity at a nanomolar-level on IMP-1 and/or IMP-4) [µM]
O=C(O)c1c(Cn2cc(CN3CCCC3)nn2)ccc2c1OB(O)CC2 [Compound 5]	1 to 100	0.01 to 1	1 to 100	< 1	1 to 100	0.01 to 1	< 0.01	0.01 to 1	0.01 to 1	0.01 to 1	0.01 to 1					
O=C(O)c1c(Cn2cc(F)cn2)ccc2c1OB(O)CC2 [Compound 15]	0.01 to 1	0.01 to 1	1 to 100	< 1	1 to 100	0.01 to 1	< 0.01	0.01 to 1	0.01 to 1	0.01 to 1	0.01 to 1	< 1	< 1			
NS(=O)(=O)Nc1cnn(Cc2ccc3c(c2C(=O)O)OB(O)CC3)c1 [Compound 34]	0.01 to 1		1 to 100		1 to 100	0.01 to 1	< 0.01	< 0.01	0.01 to 1	< 0.01	< 0.01	< 1		0.01 to 1	< 1	
O=C(O)c1c(Cn2nccn2)ccc2c1OB(O)CC2 [Compound 1]	0.01 to 1	0.01 to 1	1 to 100	< 1	1 to 100	0.01 to 1	< 0.01	0.01 to 1	0.01 to 1	0.01 to 1	< 0.01	< 1	< 1			
O=C(O)c1c(CN2C[C@H](O)CC2=O)ccc2c1OB(O)CC2 [Compound 44]	0.01 to 1	0.01 to 1	1 to 100	< 1	0.01 to 1	0.01 to 1	0.01 to 1	0.01 to 1	0.01 to 1	0.01 to 1	0.01 to 1	< 1	< 1			
C[n+]1ccn(Cc2ccc3c(c2C(=O)O)OB(O)CC3)n1 [Compound 3]	0.01 to 1	0.01 to 1	1 to 100	< 1	1 to 100	0.01 to 1	< 0.01	0.01 to 1	0.01 to 1	0.01 to 1	0.01 to 1	< 1	< 1			
CCCc1cn(Cc2ccc3c(c2C(=O)O)OB(O)CC3)nn1 [Compound 4]	0.01 to 1	0.01 to 1	0.01 to 1		1 to 100	1 to 100	< 0.01	0.01 to 1	0.01 to 1	0.01 to 1	0.01 to 1	< 1	< 1			< 1
O=C(O)c1c(Cn2cc3c(n2)CNC3)ccc2c1OB(O)[C@@H]1C[C@H]21 [Compound 53]	0.01 to 1	0.01 to 1	1 to 100		1 to 100	0.01 to 1	< 0.01	0.01 to 1	0.01 to 1	0.01 to 1	< 0.01	< 1	< 1			
N#Cc1cccn1Cc1ccc2c(c1C(=O)O)OB(O)CC2 [Compound 25]	1 to 100	1 to 100	1 to 100		1 to 100	1 to 100	< 0.01	0.01 to 1	0.01 to 1	0.01 to 1	0.01 to 1					
O=C(O)c1c(Cn2cc([N+](=O)[O-])cn2)ccc2c1OB(O)CC2 [Compound 31]	0.01 to 1	0.01 to 1	1 to 100		1 to 100	0.01 to 1	< 0.01	0.01 to 1	0.01 to 1	0.01 to 1	< 0.01	< 1	< 1			
